Assay results taken from patent US20240424113A1, “CONJUGATES COMPRISING ANTIFUNGALS AND HEAT SHOCK PROTEIN 90 (HSP90) INHIBITORS AND METHODS OF USE THEREOF” (Bright Angel Therapeutics Inc., priority 2021, published 2024).
pKd: −log10 of the molar value. ≈ marks a conversion by molar mass, not a printed value.

Columns and labels:
[1] = biological target: Hsp90 Nuclear Binding Domain (NBD) (Aspergillus fumigatus, UniProt P40292); experiment: Surface Plasmon Resonance (SPR) binding, A. fumigatus Hsp90 NBD; settings: biotinylated Hsp90 NBD on streptavidin chip, 25° C., 1:1 binding model; NB undefined
How it was run: (§1)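 Biacore S200 at 25° C; AviTag-biotinylated recombinant Hsp90 NBD captured on streptavidin chip at 2000-2500 RU. Compound dilution series run in HBS-P pH 7.4 with 2% DMSO at 40 μL/min, 60 s association and 600 s dissociation. Sensorgrams fitted to a 1:1 binding model.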

CaCl2 = experiment: Antifungal sensitivity testing (broth microdilution MIC); format: cell-based; settings: 96-well broth microdilution
How it was run: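 Broth microdilution MIC per a modified published protocol; compounds dissolved in DMSO, fluconazole in water; duplicates in at least two independent experiments. Fungicidal activity checked by spotting MIC-plate cultures onto YPD agar, read after 24 h at 30° C.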

HepG2 cells = experiment: Mammalian cell toxicity (Cell Titer-Glo); format: cell-based
Procedure: Mammalian Cell Toxicity. HepG2 cells were seeded overnight at 500 cells/well in 384-well plate, then incubated with compounds (10-point concentration titration) for 48 h. Cell Titer-Glo® reagent ([…]) was added to each well and after 10-minute incubation at room temperature the luminescent signal was measured using an Envision plate reader (Perkin Elmer).

[2] = biological target: Hsp90 Nuclear Binding Domain (NBD) (Candida albicans (strain SC5314 / ATCC MYA-2876) (Yeast), UniProt P46598); experiment: Surface Plasmon Resonance (SPR) binding, C. albicans Hsp90 NBD; settings: biotinylated Hsp90 NBD on streptavidin chip, 25° C., 1:1 binding model
How it was run: as §1

Hsp90 Nuclear Binding Domain (NBD) (Candida albicans (strain SC5314 / ATCC MYA-2876) (Yeast), UniProt P46598), sequence (P46598 1-218 limits assumed): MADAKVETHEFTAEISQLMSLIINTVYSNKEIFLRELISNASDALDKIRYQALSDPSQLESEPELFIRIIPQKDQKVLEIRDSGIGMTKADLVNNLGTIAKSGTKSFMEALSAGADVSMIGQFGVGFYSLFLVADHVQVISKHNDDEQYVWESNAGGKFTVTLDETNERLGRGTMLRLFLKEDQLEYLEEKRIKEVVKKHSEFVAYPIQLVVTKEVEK
Hsp90 Nuclear Binding Domain (NBD) (Aspergillus fumigatus, UniProt P40292), sequence (P40292 whole entry, looked up, the tested form may be a part): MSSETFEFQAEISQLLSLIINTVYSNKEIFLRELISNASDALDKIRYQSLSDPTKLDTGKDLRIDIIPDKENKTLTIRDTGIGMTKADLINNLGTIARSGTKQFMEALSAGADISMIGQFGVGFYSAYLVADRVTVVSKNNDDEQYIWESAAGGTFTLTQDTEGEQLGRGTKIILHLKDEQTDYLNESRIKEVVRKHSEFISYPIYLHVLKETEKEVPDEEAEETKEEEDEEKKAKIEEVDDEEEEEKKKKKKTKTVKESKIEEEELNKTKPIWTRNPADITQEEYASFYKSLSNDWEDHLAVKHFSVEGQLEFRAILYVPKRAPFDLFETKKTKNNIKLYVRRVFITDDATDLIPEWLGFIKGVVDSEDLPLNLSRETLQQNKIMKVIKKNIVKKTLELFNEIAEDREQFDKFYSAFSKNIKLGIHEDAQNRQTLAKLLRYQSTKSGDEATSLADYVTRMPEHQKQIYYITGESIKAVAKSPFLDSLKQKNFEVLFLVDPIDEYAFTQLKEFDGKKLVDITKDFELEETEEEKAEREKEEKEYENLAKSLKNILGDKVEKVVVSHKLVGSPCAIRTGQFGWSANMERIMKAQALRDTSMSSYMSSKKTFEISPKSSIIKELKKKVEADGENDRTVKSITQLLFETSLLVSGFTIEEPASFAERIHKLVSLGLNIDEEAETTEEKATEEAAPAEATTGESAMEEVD

Structure (SMILES) | pKd [1] | MIC50 (CaCl2; Table 4) [µM] | MIC50 (CaCl2; Table 6) [µM] | HepG2 MIC50 (HepG2 cells; Table 6, 48 h incubation) [µM] | pKd [2] | HepG2 MIC50 (HepG2 cells; Table 5, 48 h incubation) [µM]
Nc1nc2sc(C(=O)N[C@@H]3CCN(CC[C@@](O)(Cn4cncn4)c4ccc(F)cc4F)C3)cc2n(-c2ccc3c(c2)N(c2ccccc2)CCO3)c1=O [Compound I-70, 3-amino-N-((R)-1-((S)-3-(2,4-difluorophenyl)-3-hydroxy-4-(1H-1,2,4-triazol-1-yl)butyl)pyrrolidin-3-yl)-2-oxo-1-(4-phenyl-3,4-dihydro-2H-benzo[b][1,4]oxazin-6-yl)-1,2-dihydrothieno[2,3-b]pyrazine-6-carboxamide] | 8.54 | 5.75 (≈ 4.25 µg/mL) | 5.75 (≈ 4.25 µg/mL) | 1.5 | 9.52 | 
Nc1nc2sc(C(=O)NC3CCN(CC4COC(Cn5cncn5)(c5ccc(F)cc5F)C4)CC3)cc2n(-c2ccc3c(c2)N(c2ccccc2)CCO3)c1=O (stereo not drawn) [Compound I-32, N-(1-((5-((1H-1,2,4-triazol-1-yl)methyl)-5-(2,4-difluorophenyl)tetrahydrofuran-3-yl)methyl)piperidin-4-yl)-3-amino-2-oxo-1-(4-phenyl-3,4-dihydro-2H-benzo[b][1,4]oxazin-6-yl)-1,2-dihydrothieno[2,3-b]pyrazine-6-carboxamide] | 7.30 | 2.5 (≈ 1.95 µg/mL) | 2.5 (≈ 1.95 µg/mL) | 8.2 | 8.44 | 
Nc1nc2sc(CN3CCC(NCC(O)(Cn4cncn4)c4ccc(F)cc4F)CC3)cc2n(-c2ccc3c(c2)N(c2ccccc2)CCO3)c1=O (stereo not drawn) [Compound I-134, 3-amino-6-((4-((2-(2,4-difluorophenyl)-2-hydroxy-3-(1H-1,2,4-triazol-1-yl)propyl)amino)piperidin-1-yl)methyl)-1-(4-phenyl-3,4-dihydro-2H-benzo[b][1,4]oxazin-6-yl)thieno[2,3-b]pyrazin-2(1H)-one] | 5.98 | 3.13 (≈ 2.27 µg/mL) | 3.13 (≈ 2.27 µg/mL) | 15 | 6.18 | 
Nc1nc2sc(CNC3CCN(C[C@@](O)(Cn4cncn4)c4ccc(F)cc4F)CC3)cc2n(-c2ccc3c(c2)N(c2ccccc2)CCO3)c1=O [Compound I-62, (R)-3-amino-6-(((1-(2-(2,4-difluorophenyl)-2-hydroxy-3-(1H-1,2,4-triazol-1-yl)propyl)piperidin-4-yl)amino)methyl)-1-(4-phenyl-3,4-dihydro-2H-benzo[b][1,4]oxazin-6-yl)thieno[2,3-b]pyrazin-2(1H)-one] | 6.37 | 3 (≈ 2.18 µg/mL) | 3 (≈ 2.18 µg/mL) | 10.6 | 6.63 | 
Nc1nc2sc(C(=O)NC3CCN(C[C@](O)(Cn4cncn4)c4ccc(F)cc4F)CC3)cc2n(-c2ccc3ccn(-c4ccccc4)c3c2)c1=O [Compound I-23, (S)-3-amino-N-(1-(2-(2,4-difluorophenyl)-2-hydroxy-3-(1H-1,2,4-triazol-1-yl)propyl)piperidin-4-yl)-2-oxo-1-(1-phenyl-1H-indol-6-yl)-1,2-dihydrothieno[2,3-b]pyrazine-6-carboxamide] | 7.34 | 0.35 (≈ 0.253 µg/mL) | 0.35 (≈ 0.253 µg/mL) | >50 | 7.54 | >50
Nc1nc2sc(CNC3CCN(CC(O)(Cn4cncn4)c4ccc(F)cc4F)CC3)cc2n(-c2ccc3c(c2)N(c2ccccc2)CCO3)c1=O (stereo not drawn) [Compound I-47, 3-amino-6-(((1-(2-(2,4-difluorophenyl)-2-hydroxy-3-(1H-1,2,4-triazol-1-yl)propyl)piperidin-4-yl)amino)methyl)-1-(4-phenyl-3,4-dihydro-2H-benzo[b][1,4]oxazin-6-yl)thieno[2,3-b]pyrazin-2(1H)-one] | 6.26 | 1 (≈ 0.726 µg/mL) | 1 (≈ 0.726 µg/mL) | 4.4 | 6.54 | 4.4
Nc1nc2sc(CN[C@H]3CCCN(C[C@](O)(Cn4cncn4)c4ccc(F)cc4F)C3)cc2n(-c2ccc3c(c2)N(c2ccccc2)CCO3)c1=O [Compound I-130, 3-amino-6-((((S)-1-((S)-2-(2,4-difluorophenyl)-2-hydroxy-3-(1H-1,2,4-triazol-1-yl)propyl)piperidin-3-yl)amino)methyl)-1-(4-phenyl-3,4-dihydro-2H-benzo[b][1,4]oxazin-6-yl)thieno[2,3-b]pyrazin-2(1H)-one] | 5.66 | 1.75 (≈ 1.27 µg/mL) | 1.75 (≈ 1.27 µg/mL) | >20 | 5.80 | >20
Nc1nc2sc(CNC3CCN(CCCCCC(O)(Cn4cncn4)c4ccc(F)cc4F)CC3)cc2n(-c2ccc3c(c2)N(c2ccccc2)CCO3)c1=O (stereo not drawn) [Compound I-118, 3-amino-6-(((1-(6-(2,4-difluorophenyl)-6-hydroxy-7-(1H-1,2,4-triazol-1-yl)heptyl)piperidin-4-yl)amino)methyl)-1-(4-phenyl-3,4-dihydro-2H-benzo[b][1,4]oxazin-6-yl)thieno[2,3-b]pyrazin-2(1H)-one] | 6.39 | 2 (≈ 1.56 µg/mL) | 2 (≈ 1.56 µg/mL) | 3 | 6.72 | 3
Nc1nc2sc(CNCC3CCN(CC(O)(Cn4cncn4)c4ccc(F)cc4F)CC3)cc2n(-c2ccc3c(c2)N(c2ccccc2)CCO3)c1=O (stereo not drawn) [Compound I-67, 3-amino-6-((((1-(2-(2,4-difluorophenyl)-2-hydroxy-3-(1H-1,2,4-triazol-1-yl)propyl)piperidin-4-yl)methyl)amino)methyl)-1-(4-phenyl-3,4-dihydro-2H-benzo[b][1,4]oxazin-6-yl)thieno[2,3-b]pyrazin-2(1H)-one] | 6.30 | 2.25 (≈ 1.66 µg/mL) | 2.25 (≈ 1.66 µg/mL) | 4.7 | 6.40 | 
CC1CC(NCc2cc3c(nc(N)c(=O)n3-c3ccc4c(c3)N(c3ccccc3)CCO4)s2)CCN1CC(O)(Cn1cncn1)c1ccc(F)cc1F (stereo not drawn) [Compound I-138, 3-amino-6-(((1-(2-(2,4-difluorophenyl)-2-hydroxy-3-(1H-1,2,4-triazol-1-yl)propyl)-2-methylpiperidin-4-yl)amino)methyl)-1-(4-phenyl-3,4-dihydro-2H-benzo[b][1,4]oxazin-6-yl)thieno[2,3-b]pyrazin-2(1H)-one] | 6.17 | 2.3 (≈ 1.7 µg/mL) | 2.3 (≈ 1.7 µg/mL) | 7.9 | 6.35 | 
CC1(NC(=O)c2cc3c(nc(N)c(=O)n3-c3ccc4c(c3)N(c3ccccc3)CCO4)s2)CCN(CC(O)(Cn2cncn2)c2ccc(F)cc2F)CC1 (stereo not drawn) [Compound I-31, 3-amino-N-(1-(2-(2,4-difluorophenyl)-2-hydroxy-3-(1H-1,2,4-triazol-1-yl)propyl)-4-methylpiperidin-4-yl)-2-oxo-1-(4-phenyl-3,4-dihydro-2H-benzo[b][1,4]oxazin-6-yl)-1,2-dihydrothieno[2,3-b]pyrazine-6-carboxamide] | 8.64 | 1 (≈ 0.754 µg/mL) | 1 (≈ 0.754 µg/mL) | 4.6 | 9.52 | 4.6
CC1(NC(=O)c2cc3c(nc(N)c(=O)n3-c3ccc4c(c3)N(c3ccccc3)CCO4)s2)CCN(C[C@](O)(Cn2cncn2)c2ccc(F)cc2F)CC1 [Compound I-53, (S)-3-amino-N-(1-(2-(2,4-difluorophenyl)-2-hydroxy-3-(1H-1,2,4-triazol-1-yl)propyl)-4-methylpiperidin-4-yl)-2-oxo-1-(4-phenyl-3,4-dihydro-2H-benzo[b][1,4]oxazin-6-yl)-1,2-dihydrothieno[2,3-b]pyrazine-6-carboxamide] | 7.63 | 1.5 (≈ 1.13 µg/mL) | 1.5 (≈ 1.13 µg/mL) | 4 | 8.89 | 4
